Experiments:
[1] = Particle size and polydispersity index of nanoparticle compositions (Zetasizer Nano ZS); format: physicochemical
In short: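 Size and PDI measured by Zetasizer Nano ZS in 1×PBS (zeta potential in 15 mM PBS). Lipid nanoparticles contained test ionizable lipid:DSPC:cholesterol:PEG-DMG at 50:10:38.5:1.5 mol % with N1-methyl-pseudouridine mRNA encoding luciferase or hEPO.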

[2] = Encapsulation efficiency of RNA in nanoparticle compositions (RIBOGREEN assay); format: physicochemical
In short: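 Lipid nanoparticles (ionisable lipid:DSPC:cholesterol:PEG-DMG 50:10:38.5:1.5 mol %) carrying N1-methylpseudouridine luciferase or hEPO mRNA diluted to about 5 μg/mL in TE, pH 7.5, with or without 2% Triton X-100, 15 min at 37° C. RiboGreen fluorescence (ex ~480, em ~520 nm) blank-subtracted; free RNA = intact/disrupted signal.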

luciferase (Luc) mRNA = test: Luciferase expression (whole body bioluminescence) after intravenous administration to mice; format: in vivo; settings: for Novel lipid/MC3 expression ratio, i.v.: intravenous, luciferase, 6 hr. time point, relative to MC3 formulation
Method: In order to monitor how effectively various nanoparticle compositions deliver therapeutic and/or prophylactics to targeted cells, different nanparticle compositions including a particular therapeutic and/or prophylactic (for example, a modified or naturally occurring RNA such as an mRNA) are prepared and administered to rodent populations. Mice are intravenously, intramuscularly, intraarterially, or intratumorally administered a single dose including a nanoparticle composition with a formulation such as those provided in Example 3. In some instances, mice may be made to inhale doses. Dose sizes may range from 0.001 mg/kg to 10 mg/kg, where 10 mg/kg describes a dose including 10 mg of a therapeutic and/or, prophylactic in a nanoparticle composition for each 1 kg of body mass of the mouse. A control composition including PBS may also be employed.
Upon administration of nanoparticle compositions to mice, dose delivery profiles, dose responses, and toxicity of particular formulations and doses thereof can be measured by enzyme-linked immunosorbent assays (ELISA), bioluminescent imaging, or other methods. For nanoparticle compositions including mRNA, time courses of protein expression can also be evaluated. Samples collected from the rodents for evaluation may include blood, sera, and tissue (for example, muscle tissue from the site of an intramuscular injection and internal tissue); sample collection may involve sacrifice of the animals.
The efficacy of the nanoparticle compositions presented in Table 1A was evaluated with a bioluminescence study. Formulations were administered intravenously to mice (n=6) at a dosage of 0.5 mg/kg (mpk) and bioluminescence measured at 3, 6, and 24 hour time points. The standard MC3 formulation and, in some instances, a control (e.g., a PBS control) were evaluated for comparison. […] In general, flux decreased as time progressed to less than 10% of the initial flux.
The total flux (measured by area under the curve, AUC) induced by administration of a formulation including a given lipid relative to that induced by administration of a formulation including MC3 was also measured for several lipids.

modified luciferase = test: Luciferase expression in liver, lung, spleen and femur 6 hours after intravenous administration to mice; format: in vivo; settings: 6 hours after intravenous 0.5 mpk, mice
In short: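 Nanoparticle formulations of the modified luciferase were given intravenously to mice (n=3) at 0.5 mpk. Bioluminescence was measured after 6 hours as total light flux. Standard MC3 formulation and PBS run as controls.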

[3] = Table 1A, lipid:DSPC:cholesterol:PEG-DMG 50:10:38.5:1.5 mol %
[4] = intravenous administration (Table 3D)
[5] = Table 1D, compositions for subcutaneous administration, # formulated with hEPO mRNA
[6] = Table 1B, formulated with hEPO mRNA

Row | Structure (SMILES) | Size [1, 3] [nm] | EE [2, 3] [%] | Size [1, 5] [nm] | Size [1, 6] [nm] | Size ([1]; Table 1E, compositions for subcutaneous administration) [nm] | EE [2, 6] [%] | AUC (luciferase (Luc) mRNA; i.v. administration (Table 3C)) [h*p/s] | Total Flux, Liver (modified luciferase) | Total Flux, Lung (modified luciferase) | Total Flux, Spleen (modified luciferase) | AUC (luciferase (Luc) mRNA; [4]) [p/s*h] | Novel lipid/MC3 expression ratio, i.v. (luciferase (Luc) mRNA)
1 | CCCCCCCCCOC(=O)CCCCCCCN(CCO)CCCCCCCCCOC(=O)C(CCCCCC)CCCCCCCC (centres unmarked) [Compound 134, 9-((2-Hydroxyethyl)(8-(nonyloxy)-8-oxooctyl)amino)nonyl 2-hexyldecanoate] | 85.6 | 94.62 |  |  |  |  | 3.43E+11 | 1.73E+09 | 2.82E+06 | 1.85E+07 |  | 
2 | CCCCCCCCCOC(=O)CCCCCCCN(CCCCCCCC(=O)OC(CCCCCCCC)CCCCCCCC)CCN1CCOCC1 [Compound 103, Heptadecan-9-yl 8-((2-morpholinoethyl)(8-(nonyloxy)-8-oxooctyl)amino)octanoate] | 78.8 | 90.77 |  |  |  |  | 2.4E+10 | 8.48E+07 | 2.06E+05 | 2.65E+06 |  | 
3 | CCCCCCCCCOC(=O)CCCCCCCN(CCO)CCCCCCCOP(=O)(OCCCCCCCC)OCCCCCCCC [Compound 131, Nonyl 8-((7-((bis(octyloxy)phosphoryl)oxy)heptyl)(2-hydroxyethyl)amino)octanoate] |  | 75.44 |  |  |  |  | 9.29E+10 | 3.52E+08 | 1.45E+07 | 8.32E+08 |  | 
4 | CCCCCCCCCC(=O)OCCCCCCCN(CCO)CCCCCCCC(=O)OC(CCCCCCCC)CCCCCCCC [Compound 96, 7-((8-(Heptadecan-9-yloxy)-8-oxooctyl)(2-hydroxyethyl)amino)heptyl decanoate] | 120.5 | 79.04 | 82.6 |  |  |  |  | 1.56E+10 | 3.43E+07 | 3.39E+08 | 1.209E+012 | 
5 | CCCCCCCCC(C)OC(=O)CCCCCCCN(CCO)CCCCCCCOC(=O)C(CCCCCCCC)CCCCCCCC (centres unmarked) [Compound 135, 7-((8-(Decan-2-yloxy)-8-oxooctyl)(2-hydroxyethyl)amino)heptyl 2-octyldecanoate] | 89.5 | 90.20 |  |  |  |  | 1.25E+12 | 1.65E+10 | 2.71E+07 | 1.39E+08 |  | 
6 | CCCCCCCCCOC(=O)CCCCCCCN(CCCCCCCC(=O)OC(CCCCCCCC)CCCCCCCC)CCCNC(C)=O [Compound 108, Heptadecan-9-yl 8-((3-acetamidopropyl)(8-(nonyloxy)-8-oxooctyl)amino)octanoate] | 119 | 96 |  | 89.6 | 96.1 | 95.38 |  | 4.63E+08 | 9.81E+06 | 7.82E+08 |  | 0.40
7 | CCCCCCCCC(CCCCCC)C(=O)OCCCCCCCCCN(CCO)CCCCCCCCCOC(=O)C(CCCCCC)CCCCCCCC (centres unmarked) [Compound 133, ((2-Hydroxyethyl)azanediyl)bis(nonane-9,1-diyl) bis(2-hexyldecanoate)] | 66.0 | 91.48 |  |  |  |  | 3.62E+11 | 2.94E+09 | 3.18E+06 | 1.77E+07 |  | 

Now from value to compound, other results behind:

Row | Size [1, 3] [nm] | EE [2, 3] [%] | Size [1, 5] [nm] | Size [1, 6] [nm] | Size ([1]; Table 1E, compositions for subcutaneous administration) [nm] | EE [2, 6] [%] | Structure (SMILES) | AUC (luciferase (Luc) mRNA; i.v. administration (Table 3C)) [h*p/s] | Total Flux, Liver (modified luciferase) | Total Flux, Lung (modified luciferase) | Total Flux, Spleen (modified luciferase) | AUC (luciferase (Luc) mRNA; [4]) [p/s*h] | Novel lipid/MC3 expression ratio, i.v. (luciferase (Luc) mRNA)
8 | 92.9 | 94.28 |  |  |  |  | CCCCCCCCCOC(=O)CCCCCCCN(CCCCCCCC(=O)OC(CCCCCCCC)CCCCCCCC)CCOCCO [Compound 154, Heptadecan-9-yl 8-((2-(2-hydroxyethoxy)ethyl)(8-(nonyloxy)-8-oxooctyl)amino)octanoate] |  | 3.62E+08 | 2.89E+06 | 1.30E+07 | 5.560E+010 | 
9 |  | 35.70 |  |  |  |  | CCCCCCCCCOC(=O)CCCCCCCN(CCO)CCCCCCCC(=O)OC(C)(C)C [Compound 158, tert-Butyl 8-((2-hydroxyethyl)(8-(nonyloxy)-8-oxooctyl)amino)octanoate] |  | 1.99E+05 | 1.71E+04 | 1.17E+05 | 1.211E+007 | 
10 | 63.1 | 96.72 |  |  |  |  | CCCCCCCCC(CCCCCCCC)OC(=O)CCCCCCCN(C)CCCCCCCCCCCC(=O)OCCCCC [Compound 150, Pentyl 12-((8-(heptadecan-9-yloxy)-8-oxooctyl)(methyl)amino)dodecanoate] |  | 1.54E+09 | 2.20E+06 | 3.43E+07 | 2.704E+011 | 
11 |  | 25.49 |  |  |  |  | CCCCCCCCC(CCCCCCCC)OC(=O)CCCCCCCN(CCO)CCCCCCCC(=O)OCC(CCCCCCC)OC (centres unmarked) [Compound 148, Heptadecan-9-yl 8-((2-hydroxyethyl)(8-((2-methoxynonyl)oxy)-8-oxooctyl)amino)octanoate] |  | 4.39E+09 | 3.27E+07 | 2.71E+09 | 4.965E+011 | 
12 |  | 37.36 |  |  |  |  | CCCCCCCCC(CCCCCCCC)OC(=O)CCCCCCCN(CCO)CCCCCCCC(=O)OC(C)(C)C [Compound 155, tert-Butyl 8-((8-(heptadecan-9-yloxy)-8-oxooctyl)(2-hydroxyethyl)amino)octanoate] |  | 8.58E+08 | 1.00E+07 | 2.77E+08 | 1.266E+011 | 
13 |  | 89.15 |  |  |  |  | CCCCCCCCC(CCCCCCCC)OC(=O)CCCCCCCN(CCO)CCCCCCCC(=O)N(C)CCCCCCCC [Compound 145, Heptadecan-9-yl 8-((2-hydroxyethyl)(8-(methyl(octyl)amino)-8-oxooctyl)amino)octanoate] | 8.1E+10 | 5.01E+08 | 1.36E+07 | 4.25E+08 |  | 
14 | 81.4 | 98.8 |  |  |  |  | CCCCCCCCCOC(=O)CCCCCCCN(CCCCCCCC(=O)OC(CCCCCCCC)CCCCCCCC)CCCn1cc(CO)nn1 [Compound 218, Heptadecan-9-yl 8-((3-(4-(hydroxymethyl)-1H-1,2,3-triazol-1-yl)propyl)(8-(nonyloxy)-8-oxooctyl)amino)octanoate] |  |  |  |  |  | >0.01
15 | 105.7 | 87.86 | 77.6 |  |  |  | CCCCCCCCCC(=O)OCCCCCCCN(CCO)CCCCCCCOC(=O)C(CCCCCCCC)CCCCCCCC [Compound 151, 7-((7-(Decanoyloxy)heptyl)(2-hydroxyethyl)amino)heptyl 2-octyldecanoate] |  | 4.72E+09 | 9.20E+06 | 9.27E+07 | 7.010E+011 | 
16 | 104.2 | 94.7 |  |  |  |  | CCCCCCCCCOC(=O)CCCCCCCN(CCCCCCCC(=O)OC(CCCCCCCC)CCCCCCCC)CCCNC(=O)COC [Compound 178, Heptadecan-9-yl 8-((3-(2-methoxyacetamido)propyl)(8-(nonyloxy)-8-oxooctyl)amino)octanoate] |  |  |  |  |  | 0.03
17 | 97.0 | 91.94 |  |  |  |  | CCCCCCCCC(CCCCCCCC)OC(=O)CCCCCCCN(CCO)CCCCCC(=O)N(C)CCCCCCCC [Compound 146, Heptadecan-9-yl 8-((2-hydroxyethyl)(6-(methyl(octyl)amino)-6-oxohexyl)amino)octanoate] | 1.04E+09 | 7.24E+06 | 3.88E+06 | 5.11E+07 |  | 
18 | 99.5 | 88.31 |  | 111.9 |  | 91.0 | CCCCCCCCCOC(=O)CCCCCCCN(CCO)CCCCCCCCCC(=O)OC(CCCCCC)CCCCCC [Compound 147, Tridecan-7-yl 10-((2-hydroxyethyl)(8-(nonyloxy)-8-oxooctyl)amino)decanoate] | 5.63E+11 | 5.24E+09 | 6.73E+06 | 8.57E+07 |  | 

— patent publication US10857105B2, “Compounds and compositions for intracellular delivery of therapeutic agents” (ModernaTX, Inc., priority 2017, dated 2020)
